This note sets out measurements from patent US20260125382A1, “COMPOUNDS FOR INHIBITING OR DEGRADING CDK2 AND/OR CDK9 AND MEDICINAL USE THEREOF” (KOREA RESEARCH INSTITUTE OF CHEMICAL TECHNOLOGY, priority 2022, published 2026).

One test addresses T1, CDK2 (Homo sapiens, UniProt P24941).
T1 construct: endogenous in cells; host or cells: MDA-MB-231
The test can be described thus: CDK protein degradation activity (Western blotting), CDK2. The note with it: MDA-MB-231 cells, 16 hours, Western blot. In kind it is cell-based. The gist of the method:
(§1)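 Degradation is judged from CDK2 and CDK9 band intensity relative to tubulin and DMSO-treated cells, after 16 h exposure of MDA-MB-231 cells to three compound concentrations (100 nM, 1 μM, 10 μM).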

In the next test the target is T2, CDK9 (Homo sapiens, UniProt P50750).
T2 construct: endogenous in cells; host or cells: MDA-MB-231
The test can be described thus: CDK protein degradation activity (Western blotting), CDK9. The note with it: MDA-MB-231 cells, 16 hours, Western blot. It counts as cell-based. In a few lines: as §1

T2 sequence (P50750 whole entry): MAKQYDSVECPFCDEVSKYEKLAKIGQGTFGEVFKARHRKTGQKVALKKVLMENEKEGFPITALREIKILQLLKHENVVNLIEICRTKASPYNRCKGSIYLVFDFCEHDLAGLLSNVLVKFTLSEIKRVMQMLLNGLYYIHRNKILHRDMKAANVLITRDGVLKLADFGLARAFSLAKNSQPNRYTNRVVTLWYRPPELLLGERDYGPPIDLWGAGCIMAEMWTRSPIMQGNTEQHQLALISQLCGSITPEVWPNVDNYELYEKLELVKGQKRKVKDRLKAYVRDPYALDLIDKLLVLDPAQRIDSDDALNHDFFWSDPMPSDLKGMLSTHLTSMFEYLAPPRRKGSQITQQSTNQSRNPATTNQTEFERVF

In the case of `O=C1CC[C@@H](c2ccc(OCC(=O)N3CCC(CN4CCN(c5ccc(Nc6ncnc7c6ncn7[C@H]6C[C@@H](NC(=O)c7c(Cl)cccc7Cl)C6)cc5)CC4)CC3)cc2)C(=O)N1` [Compound 437, 2,6-dichloro-N-((1s,3s)-3-(6-((4-(4-((1-(2-(4-(2,6-dioxopiperidin-3-yl)phenoxy)acetyl)piperidin-4-yl)methyl)piperazin-1-yl)phenyl)amino)-9H-purin-9-yl)cyclobutyl)benzamide], on CDK2, the “Enzyme degradation CDK2 (% remaining) @ 0.1 μM” value was found to be 30%, the “Enzyme degradation CDK2 (% remaining) @ 1 μM” value is recorded as 40% and the “Enzyme degradation CDK2 (% remaining) @ 10 μM” value is 40%. In addition, at CDK9, the “Enzyme degradation CDK9 (% remaining) @ 0.1 μM” value is recorded as 10/10/10%, the “Enzyme degradation CDK9 (% remaining) @ 1 μM” value is 10/10/10% and the “Enzyme degradation CDK9 (% remaining) @ 10 μM” value is recorded as 10/10/10%.
Turning to `O=C1CC[C@@H](c2ccc(OCC(=O)N3CCC(CCN4CCN(c5ccc(Nc6ncnc7c6ncn7[C@H]6C[C@@H](NC(=O)c7cccc(C(F)(F)F)n7)C6)cc5)CC4)CC3)cc2)C(=O)N1` [Compound 438, N-((1s,3s)-3-(6-((4-(4-(2-(1-(2-(4-(2,6-dioxopiperidin-3-yl)phenoxy)acetyl)piperidin-4-yl)ethyl)piperazin-1-yl)phenyl)amino)-9H-purin-9-yl)cyclobutyl)-6-(trifluoromethyl)picolinamide], at CDK2, the “Enzyme degradation CDK2 (% remaining) @ 0.1 μM” value was found to be 40%, the “Enzyme degradation CDK2 (% remaining) @ 1 μM” value turned out to be 50% and the “Enzyme degradation CDK2 (% remaining) @ 10 μM” value came to 50%. At CDK9, the “Enzyme degradation CDK9 (% remaining) @ 0.1 μM” value is given as 10/10/10%, the “Enzyme degradation CDK9 (% remaining) @ 1 μM” value is reported as 10/10/10% and the “Enzyme degradation CDK9 (% remaining) @ 10 μM” value is on record as 10/10/10%.
For `O=C1CC[C@@H](c2ccc(OCC(=O)N3CCC4(CC3)CC(N3CCN(c5ccc(Nc6ncnc7c6ncn7[C@H]6C[C@@H](NC(=O)c7cccc(C(F)(F)F)n7)C6)cc5)CC3)C4)cc2)C(=O)N1` [Compound 439, N-((1s,3s)-3-(6-((4-(4-(7-(2-(4-(2,6-dioxopiperidin-3-yl)phenoxy)acetyl)-7-azaspiro[3.5]nonan-2-yl)piperazin-1-yl)phenyl)amino)-9H-purin-9-yl)cyclobutyl)-6-(trifluoromethyl)picolinamide], at CDK2, the “Enzyme degradation CDK2 (% remaining) @ 0.1 μM” value was 50/50/50%, the “Enzyme degradation CDK2 (% remaining) @ 1 μM” value was 50/50/50% and the “Enzyme degradation CDK2 (% remaining) @ 10 μM” value was 50/50/50%. On CDK9, the “Enzyme degradation CDK9 (% remaining) @ 0.1 μM” value was 10/10/10%, the “Enzyme degradation CDK9 (% remaining) @ 1 μM” value is 10/10/10% and the “Enzyme degradation CDK9 (% remaining) @ 10 μM” value was 10/10/10%.
For `O=C1CC[C@@H](c2ccc(OCC(=O)N3CCC(CN4CCN(c5ccc(Nc6ncnc7c6ncn7[C@H]6C[C@@H](NC(=O)c7cccc(Cl)n7)C6)cc5)CC4)CC3)cc2)C(=O)N1` [Compound 440, 6-chloro-N-((1s,3s)-3-(6-((4-(4-((1-(2-(4-(2,6-dioxopiperidin-3-yl)phenoxy)acetyl)piperidin-4-yl)methyl)piperazin-1-yl)phenyl)amino)-9H-purin-9-yl)cyclobutyl)picolinamide], on CDK2, the “Enzyme degradation CDK2 (% remaining) @ 0.1 μM” value is listed as 20/20/20%, the “Enzyme degradation CDK2 (% remaining) @ 1 μM” value is recorded as 20/20/20% and the “Enzyme degradation CDK2 (% remaining) @ 10 μM” value was 20/20/20%. Also, on CDK9, the “Enzyme degradation CDK9 (% remaining) @ 0.1 μM” value was 10/10/10%, the “Enzyme degradation CDK9 (% remaining) @ 1 μM” value is recorded as 10/10/10% and the “Enzyme degradation CDK9 (% remaining) @ 10 μM” value is 10/10/10%.
For the compound `N#Cc1cccc(C(=O)N[C@H]2C[C@@H](n3cnc4c(Nc5ccc(N6CCN(CC7CCN(c8ccc9c(c8)CN(C8CCC(=O)NC8=O)C9=O)CC7)CC6)cc5)ncnc43)C2)n1` (stereo partly drawn) [Compound 441, 6-cyano-N-((1s,3s)-3-(6-((4-(4-((1-(2-(2,6-dioxopiperidin-3-yl)-1-oxoisoindolin-5-yl)piperidin-4-yl)methyl)piperazin-1-yl)phenyl)amino)-9H-purin-9-yl)cyclobutyl)picolinamide], at CDK2, the “Enzyme degradation CDK2 (% remaining) @ 0.1 μM” value was found to be 30%, the “Enzyme degradation CDK2 (% remaining) @ 1 μM” value is 30% and the “Enzyme degradation CDK2 (% remaining) @ 10 μM” value is 40%. Besides, at CDK9, the “Enzyme degradation CDK9 (% remaining) @ 0.1 μM” value is recorded as 10/10/10%, the “Enzyme degradation CDK9 (% remaining) @ 1 μM” value is on record as 10/10/10% and the “Enzyme degradation CDK9 (% remaining) @ 10 μM” value was 10/10/10%.
On to `O=C1CC[C@@H](c2ccc(OCC(=O)N3CCC4(CC3)CC(N3CCN(c5ccc(Nc6ncnc7c6ncn7[C@H]6C[C@@H](NC(=O)c7c(Cl)cccc7Cl)C6)cc5)CC3)C4)cc2)C(=O)N1` [Compound 442, 2,6-dichloro-N-((1s,3s)-3-(6-((4-(4-(7-(2-(4-(2,6-dioxopiperidin-3-yl)phenoxy)acetyl)-7-azaspiro[3.5]nonan-2-yl)piperazin-1-yl)phenyl)amino)-9H-purin-9-yl)cyclobutyl)benzamide], for which, at CDK2, the “Enzyme degradation CDK2 (% remaining) @ 0.1 μM” value is recorded as 40/40/40%, the “Enzyme degradation CDK2 (% remaining) @ 1 μM” value is given as 40/40/40% and the “Enzyme degradation CDK2 (% remaining) @ 10 μM” value is given as 40/40/40%. Further, on CDK9, the “Enzyme degradation CDK9 (% remaining) @ 0.1 μM” value is given as 0/0/0%, the “Enzyme degradation CDK9 (% remaining) @ 1 μM” value was 0/0/0% and the “Enzyme degradation CDK9 (% remaining) @ 10 μM” value is given as 0/0/0%.
With `Cc1cccc(C(=O)NC2CC(n3cnc4c(Nc5ccc(N6CCN(CC7CCN(C(=O)COc8ccc([C@@H]9CCC(=O)NC9=O)cc8)CC7)CC6)cc5)ncnc43)C2)n1` (stereo partly drawn) [Compound 443, N-((1s,3s)-3-(6-((4-(4-((1-(2-(4-(2,6-dioxopiperidin-3-yl)phenoxy)acetyl)piperidin-4-yl)methyl)piperazin-1-yl)phenyl)amino)-9H-purin-9-yl)cyclobutyl)-6-methylpicolinamide], at CDK2, the “Enzyme degradation CDK2 (% remaining) @ 0.1 μM” value was 20/20/20%, the “Enzyme degradation CDK2 (% remaining) @ 1 μM” value was 20/20/20% and the “Enzyme degradation CDK2 (% remaining) @ 10 μM” value is 20/20/20%. Further, on CDK9, the “Enzyme degradation CDK9 (% remaining) @ 0.1 μM” value is 0/0/0%, the “Enzyme degradation CDK9 (% remaining) @ 1 μM” value is listed as 0/0/0% and the “Enzyme degradation CDK9 (% remaining) @ 10 μM” value is on record as 0/0/0%.
With `Cc1cccc(C(=O)N[C@H]2C[C@@H](n3cnc4c(Nc5ccc(N6CCN(CCC7CCN(C(=O)COc8ccc([C@@H]9CCC(=O)NC9=O)cc8)CC7)CC6)cc5)ncnc43)C2)n1` [Compound 444, N-((1s,3s)-3-(6-((4-(4-(2-(1-(2-(4-(2,6-dioxopiperidin-3-yl)phenoxy)acetyl)piperidin-4-yl)ethyl)piperazin-1-yl)phenyl)amino)-9H-purin-9-yl)cyclobutyl)-6-methylpicolinamide], at CDK2, the “Enzyme degradation CDK2 (% remaining) @ 0.1 μM” value was 30/30/30%, the “Enzyme degradation CDK2 (% remaining) @ 1 μM” value is given as 30/30/30% and the “Enzyme degradation CDK2 (% remaining) @ 10 μM” value is 30/30/30%. On CDK9, the “Enzyme degradation CDK9 (% remaining) @ 0.1 μM” value is given as 0/0/0%, the “Enzyme degradation CDK9 (% remaining) @ 1 μM” value is 0/0/0% and the “Enzyme degradation CDK9 (% remaining) @ 10 μM” value is given as 0/0/0%.
Regarding `Cc1cccc(C(=O)N[C@H]2C[C@@H](n3cnc4c(Nc5ccc(N6CCN(CC7CCN(C(=O)C8CN(c9ccc%10c(c9)C(=O)N([C@H]9CCC(=O)NC9=O)C%10=O)C8)CC7)CC6)cc5C)ncnc43)C2)n1` [Compound 448, N-((1s,3s)-3-(6-((4-(4-((1-(1-(2-(2,6-dioxopiperidin-3-yl)-1,3-dioxoisoindolin-5-yl)azetidin-3-carbonyl)piperidin-4-yl)methyl)piperazin-1-yl)-2-methylphenyl)amino)-9H-purin-9-yl)cyclobutyl)-6-methylpicolinamide], at CDK2, the “Enzyme degradation CDK2 (% remaining) @ 0.1 μM” value is on record as 70/70/70%, the “Enzyme degradation CDK2 (% remaining) @ 1 μM” value is on record as 70/70/70% and the “Enzyme degradation CDK2 (% remaining) @ 10 μM” value is on record as 70/70/70%. Moreover, at CDK9, the “Enzyme degradation CDK9 (% remaining) @ 0.1 μM” value is on record as 20/20/20%, the “Enzyme degradation CDK9 (% remaining) @ 1 μM” value is 20/20/20% and the “Enzyme degradation CDK9 (% remaining) @ 10 μM” value is recorded as 20/20/20%.
For the compound `Cc1cccc(C(=O)NC2CC(n3cnc4c(Nc5ccc(N6CCN(CCC7CCN(C(=O)C8CCN(c9cc%10c(cc9F)C(=O)N([C@H]9CCC(=O)NC9=O)C%10=O)CC8)CC7)CC6)cc5)ncnc43)C2)n1` (stereo partly drawn) [Compound 449, N-((1s,3s)-3-(6-((4-(4-(2-(1-(1-(2-(2,6-dioxopiperidin-3-yl)-6-fluoro-1,3-dioxoisoindolin-5-yl)piperidin-4-carbonyl)piperidin-4-yl)ethyl)piperazin-1-yl)phenyl)amino)-9H-purin-9-yl)cyclobutyl)-6-methylpicolinamide], on CDK2, the “Enzyme degradation CDK2 (% remaining) @ 0.1 μM” value came to 50%, the “Enzyme degradation CDK2 (% remaining) @ 1 μM” value is 40% and the “Enzyme degradation CDK2 (% remaining) @ 10 μM” value was determined as 40%. For the same compound, at CDK9, the “Enzyme degradation CDK9 (% remaining) @ 0.1 μM” value was 10/10/10%, the “Enzyme degradation CDK9 (% remaining) @ 1 μM” value is given as 10/10/10% and the “Enzyme degradation CDK9 (% remaining) @ 10 μM” value is given as 10/10/10%.
`Cc1cccc(C(=O)N[C@H]2C[C@@H](n3cnc4c(NCCC5CCN(CC6CCN(C(=O)C7CCN(c8cc9c(cc8F)C(=O)N(C8CCC(=O)NC8=O)C9=O)CC7)CC6)CC5)ncnc43)C2)n1` (stereo partly drawn) [Compound 450, N-((1s,3s)-3-(6-((2-(1-((1-(1-(2-(2,6-dioxopiperidin-3-yl)-6-fluoro-1,3-dioxoisoindolin-5-yl)piperidin-4-carbonyl)piperidin-4-yl)methyl)piperidin-4-yl)ethyl)amino)-9H-purin-9-yl)cyclobutyl)-6-methylpicolinamide]: at CDK2, the “Enzyme degradation CDK2 (% remaining) @ 0.1 μM” value is 50/50/50%, the “Enzyme degradation CDK2 (% remaining) @ 1 μM” value is 50/50/50% and the “Enzyme degradation CDK2 (% remaining) @ 10 μM” value is given as 50/50/50%. Moreover, on CDK9, the “Enzyme degradation CDK9 (% remaining) @ 0.1 μM” value is listed as 0/0/0%, the “Enzyme degradation CDK9 (% remaining) @ 1 μM” value is given as 0/0/0% and the “Enzyme degradation CDK9 (% remaining) @ 10 μM” value is 0/0/0%.
